Laboratory results reported in patent US9290688B2, “Alkaline microbial enhanced oil recovery” (GEO FOSSIL FUELS, LLC, priority 2011, dated 2016).
Numbered stars: 1 amine (or outer) side, 2 acyl side, 3 side chain; on linkers, the order of the positions; unused ones are H or OH. Bridge positions count the residues as written; N and C are the ends. Square brackets hold non-standard residues; d marks the D form. Peptide text beside a SMILES is read from it. X1 = CC(C)CCCCCCCCC[C@H](CC(=O)[*:1])O[*:2]

Tests used:
[1] = 100, pH 10
Experimental: Production of rhamnolipid biosurfactant was tested in engineered strains using the oil spreading assay (Fang et al DOE report 2007). Cells were grown three days at 30° C. in YCA-10 medium (per liter: 25 g NaCl, 5 g yeast extract, 5 g casamino Acids, 5 g Na2CO3, 1 g sodium glutamate, 1 g NH4Cl, 1 g KH2PO4, 1 g KCl, 200 mg MgSO4.7H2O, 36 mg FeCl2.4H2O, 0.36 mg MnCl.4H2O, adjusted to pH10.0 with KOH) containing 5 μg/ml chloramphenicol. For oil spreading assays, 50 mls of distilled water was dispensed into a 15 cm petri dish and 50 μl of petroleum oil was added to the surface of the water. A 10 μl drop of medium or culture suspension was added to the surface of the oil, and the diameter of the clear zone (if any) was measured after 2 minutes.

[2] = system: 3-ketoacyl-CoA thiolase; conditions: cited from earlier work
[3] = system: Rhodococcus rhodochrous ATCC #53968; test: Digestion of Red River crude oil with and without beta-oxidation inhibitors; GC of methyl esters of extracted organic acids; type: cell-based; conditions: for Total GC (all peaks integrated by the GC integrator): 0.31 g oil sample; for conv. To umoles FA: approximately 1.0 micromoles per 100 area units; for Cal. AN (calculated acid number): estimated from GC areas
Experimental: (§1) An oil degrading microorganism was used to evaluate the use of chemical inhibitors to slow the utilization of hydrocarbons in petroleum. In a non-limiting example, three different chemical compounds that have been reported to inhibit beta-oxidation were tested in oil and culture medium on a petroleum sample with a strain of Rhodococcus rhodochrous ATCC #53968 in m9 minimal medium. To test the ability of each chemical inhibitor to slow the consumption of fatty acids a culture of bacteria was grown on a crude oil sample for a period of three days with crude petroleum oil as the only carbon source. Four separate flasks were set up, each with an oil to aqueous media ratio of 1 to 5 (10 ml of crude oil to 50 ml of culture medium). Each of the three chemical inhibitors was added to a separate flask and a fourth flask was allowed to digest without the addition of a chemical inhibitor as a control. The flasks were shaken at a room temperature of about 25° C. under aerobic conditions. The progress of the microbial digestion was monitored by the optical density at 600 nm and by visual inspection of the brown oil color in the aqueous phase. Three days after the addition of inhibitors, or a total of six days of incubation with oil, a small sample of oil (0.31 g) was removed. A second sample of the same size was remover after another 6 days. The organic acids were extracted from each oil sample with 1% NaOH in 70% ethanol. The samples were shaken vigorously for one minute. The aqueous extract material was then extracted with hexane to remove any trace of oil. The samples of extracted organic acids were then dried under vacuum and converted to methyl esters with BF3 in methanol.
The mixtures of methyl esters were analyzed by GC (gas chromatography) using a HP (Hewlett Packard) 5890 GC with an Agilent Technologies capillary column, HP-5 (crosslinked 5% PH) ME Siloxane 0.25 micrometer coating with a length of 30 meter and a column ID (internal diameter) of 0.32 mm. Helium was used as a carrier gas. Detection was by a FID detector and integration of peak areas was done with a HP 3396 integrator. The temperature program held an initial temperature of 40° C. for 1.0 minutes then increased at 15 degrees per minute to 280° C., and finally held at a temperature of 280° C. for 5 minutes. To quantify the amount of organic acids extracted by this procedure, a stock solution of 2-bromooctanoate and 2-bromohexadecanoate were added to a sample of undigested Red River crude petroleum oil and then extracted by the same procedure as the bio-digested oil samples. The average area for theses two organic acids was used to estimate the amount of organic acids in micromoles per area unit determined by the GC integrator. The number was calculated to be approximately 1.0 micromoles per 100 area units. The area units for each of the GC peaks are list in Table 2. This number was used to estimate the micromoles organic acids extracted from the oil. This estimate was used to calculate the number of mg of KOH that equaled the number of micromoles of organic acid estimated. This number is listed on the last row in Table 2 as the calculated AN (acid number) for each digestion experiment. These estimated numbers are only based on organic acids that are hydrophobic enough to stay in the oil phase and not move into the aqueous phase. Organic acids measured include the carboxylic acids made by the bacteria and that have been secreted out of the cell and have migrated back to the oil phase. They are also hydrocarbons that are small enough to be extracted into the ethanol aqueous extraction solvent. This number is likely to be less than the total acid number (TAN), a measure often used to evaluate crude petroleum for amenability to alkaline waterflooding.
The earlier eluting peaks are believed to represent methyl ester of lighter hydrocarbon carboxylic acids and the later eluting peaks are believed to represent methyl ester of the heavier organic acids. […]

[4] = system: Rhodococcus rhodochrous ATCC #53968; test: Growth of bacteria on crude oil with inhibitors, optical density at 600 nm; type: cell-based
Experimental: as §1
Digestion with the bacteria increases the total amount of carboxylic acids in all the samples. The digestions with the chemical beta-oxidation inhibitors produce about the same or a little more total methyl ester peaks than the bacterial digestion without an inhibitor. […] The later eluting peaks increase at a faster rate with the inhibitors than without. For example, the 12 day sample with no inhibitor increase from 5.9 to 45.9 area units for peaks up to 13 minutes. The sample with the acrylic acid inhibitor has an increase of from 5.9 to 43.7 area units, which is less than without inhibitor. The later eluting peaks increase from 3.6 to 14.3 without the inhibitor, but with acrylic acid the later peak areas increase to 22.5 area units. […] After 6 days of digestion the optical density had reached 2.23 for the uninhibited digestion as compared to 0.49 for the acrylic acid inhibited sample and 1.84 for the 2-bromooctanoic acid and 2.4 for the 2-bromohexadeconoic acid. After 12 days of digestion the uninhibited sample had reached 4.0 and the acrylic acid had increased to 1.7 and 2.2 and 2.4 for the other two inhibitors. Therefore, by this experimental analysis one can determine which inhibitors increase the carboxylic acid content or the acid number of the oil fastest with the least amount of oil consumption. The oil consumption can be determined by quantitation of remaining oil or by growth of bacteria were oil is the only carbon source. It appears that all the inhibitors helped reduce the utilization of fatty acids and the consumption of oil while producing an increase in acid number.

[5] = system: Rhodococcus rhodochrous ATCC #53968; test: End of digestion: oil and aqueous volumes, acid number by alcoholic alkaline extraction and back titration; type: cell-based; conditions: one ml of oil, alcoholic alkaline extraction, back titration; acrylic acid value per gram of oil emulsion
Experimental: as §1, with “The samples were shaken vigorously for one minute. The aqueous extract material was then extracted with hexane to remove any trace of oil. The samples of extracted organic acids were then dried under vacuum and converted to methyl esters with BF3 in methanol.” left out
At the end of the experiment the oil and water were separated and the volume determined. […] This would have under reported the amount of methyl esters determined by GC analysis. The amount of aqueous phase was determined to be 22.5 ml for the acrylic acid sample and 46 ml, 48 ml and 47.5 ml for the others. […] The calculated acid number for the uninhibited digestion was 5 mg of KOH per gram. The other two inhibited digestions were analyzed to be 4.5 mg for the 2-bromooctanoic acid and 6.5 for the 2-bromohexadecanoic acid inhibited digestion. The undigested oil was determined to have an acid number of 6.5 mg of KOH by analysis of a one gram sample and a 10 gram sample. […]

[6] = molecular target: T1, 3-ketothiolase I (Rattus norvegicus, UniProt P13437); conditions: cited from earlier work
T1 sequence (P13437 1-397): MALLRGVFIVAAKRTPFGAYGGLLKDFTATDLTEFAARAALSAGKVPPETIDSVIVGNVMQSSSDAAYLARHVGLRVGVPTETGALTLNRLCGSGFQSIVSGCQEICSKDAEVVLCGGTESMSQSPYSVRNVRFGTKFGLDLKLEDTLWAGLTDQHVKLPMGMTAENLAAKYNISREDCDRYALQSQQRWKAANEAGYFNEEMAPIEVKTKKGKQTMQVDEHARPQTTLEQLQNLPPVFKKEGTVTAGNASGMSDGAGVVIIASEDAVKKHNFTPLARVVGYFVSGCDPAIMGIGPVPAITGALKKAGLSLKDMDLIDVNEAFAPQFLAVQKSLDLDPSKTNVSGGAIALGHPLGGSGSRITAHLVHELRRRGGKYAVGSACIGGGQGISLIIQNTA

CC(C)CCCCCCCCC[C@@H]1CC(=O)N[C@@H](CCC(=O)O)C(=O)N[C@@H](CC(C)C)C(=O)N[C@H](CC(C)C)C(=O)N[C@@H](C(C)C)C(=O)N[C@@H](CC(=O)O)C(=O)N[C@H](CC(C)C)C(=O)N[C@@H](CC(C)C)C(=O)O1 [Surfactin (purified)] (EL[dL]VD[dL]L; linker N-C via X1)
Clear zone diameter [1]: 13 mm

O=C(O)c1ccccc1O [Salicylic acid]
effect on 3-ketoacyl-CoA thiolase in P. fluorescens [2]: inhibit

CCCCCCCCCCCCCCC(Br)C(=O)O (stereo not shown) [Br C16, 2-bromohexadecanoic acid]
GC peak area, retention time 4.5 ([3]; 6 days): 0.226 area units | GC peak area, retention time 5.6 ([3]; 6 days): 1.099 area units | GC peak area, retention time 6.6 ([3]; 6 days): 3.049 area units | GC peak area, retention time 7.6 ([3]; 6 days): 2.553 area units | GC peak area, retention time 8.2 ([3]; 6 days): 0.705 area units | GC peak area, retention time 8.5 ([3]; 6 days): 1.395 area units | GC peak area, retention time 9.4 ([3]; 6 days): 1.131 area units | GC peak area, retention time 10.2 ([3]; 6 days): 1.11 area units | GC peak area, retention time 11 ([3]; 6 days): 4.105 area units | GC peak area, retention time 11.5 ([3]; 6 days): 2.76 area units | GC peak area, retention time 12.5 ([3]; 6 days): 4.8 area units | GC peak area, retention time 13.2 ([3]; 6 days): 1.26 area units | GC peak area, retention time 13.6 ([3]; 6 days): 1.997 area units | GC peak area, retention time 13.8 ([3]; 6 days): 3.211 area units | SubTotal peak area, later peaks eluting after 13 minutes ([3]; 6 days): 6.468 area units | SubTotal peak area, peaks eluting before 13 minutes ([3]; 6 days): 22.933 area units | Total GC area For 1 ml ([3]; 6 days): 1385 | Total of all selected peaks ([3]; 6 days): 29.401 area units | Total GC (all peaks integrated by the GC integrator) ([3]; 6 days): 429.5 area units | conv. To umoles FA ([3]; 6 days): 13.85 µmol | Cal. AN (calculated acid number) ([3]; 6 days): 0.78 mg of KOH | GC peak area, retention time 4.2 ([3]; 12 days): 0.354 area units | GC peak area, retention time 4.5 ([3]; 12 days): 0.237 area units | GC peak area, retention time 5.6 ([3]; 12 days): 0.624 area units | GC peak area, retention time 6.6 ([3]; 12 days): 1.498 area units | GC peak area, retention time 7.6 ([3]; 12 days): 1.246 area units | GC peak area, retention time 8.2 ([3]; 12 days): 0.602 area units | GC peak area, retention time 8.5 ([3]; 12 days): 0.624 area units | GC peak area, retention time 9.4 ([3]; 12 days): 0.476 area units | GC peak area, retention time 10.2 ([3]; 12 days): 0.475 area units | GC peak area, retention time 11 ([3]; 12 days): 1.663 area units | GC peak area, retention time 11.5 ([3]; 12 days): 3.922 area units | GC peak area, retention time 12.3 ([3]; 12 days): 3.095 area units | GC peak area, retention time 13 ([3]; 12 days): 2.495 area units | GC peak area, retention time 13.2 ([3]; 12 days): 3.584 area units | GC peak area, retention time 13.4 ([3]; 12 days): 3.088 area units | GC peak area, retention time 13.6 ([3]; 12 days): 2.779 area units | GC peak area, retention time 13.8 ([3]; 12 days): 4.626 area units | GC peak area, retention time 14.2 ([3]; 12 days): 0.762 area units | SubTotal peak area, later peaks eluting after 13 minutes ([3]; 12 days): 17.334 area units | SubTotal peak area, peaks eluting before 13 minutes ([3]; 12 days): 14.816 area units | Total GC area For 1 ml ([3]; 12 days): 828 | Total of all selected peaks ([3]; 12 days): 32.15 area units | Total GC (all peaks integrated by the GC integrator) ([3]; 12 days): 256.8 area units | conv. To umoles FA ([3]; 12 days): 8.28 µmol | Cal. AN (calculated acid number) ([3]; 12 days): 0.46 mg of KOH | optical density ([4]; after 6 days of digestion, crude oil only carbon source): 2.4 | optical density ([4]; after 12 days of digestion): 2.4 | final analysis acid number [5]: 6.5 mg KOH per gram

CCCCCCC(Br)C(=O)O (racemic) [DL-2-bromooctanoate]
effect on 3-ketothiolase I [6]: complete and irreversible inactivation
